Results as given in DBAASP.
Values after ≈ are worked out from the molar mass of the structure shown. Values joined by “and” are separate entries in the source; they are usually repeats but may differ in a detail not shown here. Equal values may be shown once. Blank lines part the entries; values can stand above or below the compound they belong to.

Columns and labels:
Assay in all cases: ≥ marks a high value that may be exact or a test limit, other limits are often not marked, values filed in µg/mL are converted to µM
[1] = test system: Clavibacter michiganensis subsp. michiganensis DSM 46294
[2] = test system: Pectobacterium carotovorum subsp. carotovorum DSM 30168
[3] = test system: Pseudomonas corrugata DSM 7228
[4] = test system: Pseudomonas syringae pv. syringae DSM 10604
[5] = test system: Pseudomonas syringae pv. tomato DC3000
[6] = test system: Staphylococcus aureus 90857
[7] = test system: Xanthomonas vesicatoria DSM 50861
[8] = test system: Escherichia coli DSM 1103
[9] = test system: Klebsiella pneumoniae DSM 681
[10] = test system: Pseudomonas aeruginosa DSM 1128
[11] = test system: Staphylococcus aureus ATCC 25923
[12] = test system: Streptococcus pneumoniae DSM 11865
[13] = test system: Bacillus cereus ATCC 11778
[14] = test system: Candida albicans ATCC 10231
[15] = test system: Citrobacter koseri
[16] = test system: Enterococcus faecalis ATCC 29212
[17] = test system: Escherichia coli BL21
[18] = test system: Escherichia coli JM109
[19] = test system: Escherichia coli PFH12
[20] = test system: Escherichia coli PFH13
[21] = test system: Escherichia coli PFH1
[22] = test system: Escherichia coli PFL6
[23] = test system: Klebsiella pneumoniae CCRC 10694
[24] = test system: Listeria monocytogenes ATCC 15313
[25] = test system: Pseudomonas aeruginosa ATCC 27853
[26] = test system: Pseudomonas aeruginosa
[27] = test system: Salmonella enterica subsp. enterica serovar Enteritidis ATCC 13076
[28] = test system: Salmonella enterica
[29] = test system: Salmonella typhimurium CCRC 12947
[30] = test system: Staphylococcus aureus CCRC 12652
[31] = test system: Staphylococcus aureus CCRC 15211
[32] = test system: Staphylococcus xylosus
[33] = test system: Streptococcus alactolyticus
[34] = test system: Vibrio parahaemolyticus CCRC 10806
[35] = test system: Alternaria alternata
[36] = test system: Botrytis cinerea
[37] = test system: Cladosporium herbarum
[38] = test system: Acinetobacter baumannii ATCC 19606
[39] = test system: Enterobacter cloacae ATCC 49141
[40] = test system: Escherichia coli ATCC 25922
[41] = test system: Escherichia coli D21
[42] = test system: Staphylococcus aureus II ATCC 6538P
[43] = test system: Acinetobacter baumannii B28-16
[44] = test system: Escherichia coli E423-17
[45] = test system: Klebsiella pneumoniae E406-17
[46] = test system: Pseudomonas aeruginosa E411-17
[47] = test system: Staphylococcus aureus USA 300
[48] = test system: Escherichia coli ATCC 11219
[49] = test system: Klebsiella pneumoniae ATCC 10031
[50] = test system: Pseudomonas aeruginosa ATCC 13388
[51] = test system: Salmonella enterica subsp. enterica serovar Typhimurium ATCC 14028
[52] = test system: Staphylococcus aureus ATCC 6538

MIC [1]: 1.6 µM (≈ 2.5 µg/mL)
MIC [2]: 6.39 µM (≈ 9.99 µg/mL)
MIC [3]: 0.0639 µM (≈ 0.0999 µg/mL)
MIC [4]: 0.0639 µM (≈ 0.0999 µg/mL)
MIC [5]: 6.39 µM (≈ 9.99 µg/mL)
MIC [6]: 6.25 µM (≈ 9.78 µg/mL)
MIC [7]: 0.0639 µM (≈ 0.0999 µg/mL)
SMILES: CC(C)C[C@H](NC(=O)[C@H](CC(C)C)NC(=O)[C@H](CCCN=C(N)N)NC(=O)[C@H](CCCCN)NC(=O)[C@H](CC(C)C)NC(=O)[C@H](CC(C)C)NC(=O)[C@H](CCCCN)NC(=O)[C@H](CC(C)C)NC(=O)[C@H](CCCN=C(N)N)NC(=O)[C@H](CCCCN)NC(=O)[C@H](CCCCN)NC(=O)[C@@H](N)CCCN=C(N)N)C(N)=O [RKKRLKLLKRLL]

MIC [8]: ≥ 157 µM
MIC [9]: ≥ 157 µM
MIC [10]: ≥ 157 µM
MIC [11]: > 157 µM
MIC [12]: ≥ 157 µM
SMILES: CC(C)C[C@H](NC(=O)[C@@H](NC(=O)[C@H](C)NC(=O)[C@H](C)NC(=O)[C@H](CCCN=C(N)N)NC(=O)CNC(=O)CNC(=O)[C@H](CCCN=C(N)N)NC(=O)[C@@H](NC(=O)[C@H](CCCN=C(N)N)NC(=O)[C@H](C)NC(=O)[C@H](Cc1ccc(O)cc1)NC(=O)[C@H](Cc1ccc(O)cc1)NC(=O)[C@H](CCCCN)NC(=O)[C@H](CCC(N)=O)NC(=O)[C@@H](N)CC(C)C)C(C)C)C(C)C)C(=O)N[C@@H](CO)C(=O)O [LQKYYARVRGGRAAVLS]

MIC [13]: 8 µM (≈ 12.1 µg/mL)
MIC [14]: 4 µM (≈ 6.05 µg/mL)
MIC [15]: 2.64 µM (≈ 4 µg/mL)
MIC [16]: ≥ 32 µM
MIC [17]: 2.64 µM (≈ 4 µg/mL)
MIC [18]: 5.28 µM (≈ 7.99 µg/mL)
MIC [19]: 3.74 µM (≈ 5.65 µg/mL)
MIC [20]: 3.74 µM (≈ 5.65 µg/mL)
MIC [21]: 3.74 µM (≈ 5.65 µg/mL)
MIC [22]: 5.28 µM (≈ 7.99 µg/mL)
MIC [23]: 21.1 µM (≈ 32 µg/mL)
MIC [24]: 4 µM (≈ 6.05 µg/mL)
MIC [25]: ≥ 32 µM
MIC [26]: 63.4 µM (≈ 95.9 µg/mL)
MIC [27]: 4 µM (≈ 6.05 µg/mL)
MIC [28]: 10.6 µM (≈ 16 µg/mL)
MIC [29]: 21.1 µM (≈ 32 µg/mL)
MIC [11]: 4 µM (≈ 6.05 µg/mL)
MIC [30]: 10.6 µM (≈ 16 µg/mL)
MIC [31]: 21.1 µM (≈ 32 µg/mL)
MIC [32]: 0.991 µM (≈ 1.5 µg/mL)
MIC [33]: 5.28 µM (≈ 7.99 µg/mL)
SMILES: CC[C@H](C)[C@H](N)C(=O)N[C@@H](CC(N)=O)C(=O)N[C@@H](CC(C)C)C(=O)N[C@@H](CCCCN)C(=O)N[C@@H](C)C(=O)N[C@H](C(=O)N[C@@H](C)C(=O)N[C@@H](C)C(=O)N[C@@H](CC(C)C)C(=O)N[C@@H](C)C(=O)N[C@@H](CCCCN)C(=O)N[C@@H](CCCCN)C(=O)N[C@@H](CC(C)C)C(=O)N[C@@H](Cc1ccccc1)C(N)=O)[C@@H](C)CC [INLKAIAALAKKLF]
MIC [34]: 10.6 µM (≈ 16 µg/mL)

MIC [35]: ≥ 73.1 µM
MIC [36]: ≥ 73.1 µM
MIC [37]: ≥ 73.1 µM
MIC [1]: 29.2 µM (≈ 40 µg/mL)
MIC [2]: 29.2 µM (≈ 40 µg/mL)
MIC [3]: 14.6 µM (≈ 20 µg/mL)
MIC [4]: 3.66 µM (≈ 5 µg/mL)
MIC [5]: 7.31 µM (≈ 9.99 µg/mL)
MIC [7]: 29.2 µM (≈ 40 µg/mL)
SMILES: CC[C@H](C)[C@H](NC(=O)[C@H](C)NC(=O)[C@H](CCCCN)NC(=O)[C@H](CCCCN)NC(=O)[C@H](CC(C)C)NC(=O)[C@H](Cc1ccccc1)NC(=O)[C@H](Cc1cnc[nH]1)NC(=O)[C@H](C)NC(=O)[C@H](CC(C)C)NC(=O)[C@H](C)N)C(=O)N[C@@H](CCCCN)C(=O)N[C@@H](CCCCN)C(N)=O [ALAHFLKKAIKK]

MIC [38]: > 100 µM
MIC [14]: 25 µM and > 12.5 µM
MIC [39]: ≥ 100 µM
MIC [40]: 100 µM (≈ 188 µg/mL)
MIC [41]: ≥ 100 µM
MIC [25]: 100 µM (≈ 188 µg/mL)
MIC [42]: ≥ 100 µM
SMILES: CC(C)C[C@H](NC(=O)[C@H](Cc1cnc[nH]1)NC(=O)[C@H](CCCN=C(N)N)NC(=O)[C@H](CC(C)C)NC(=O)[C@H](CC(C)C)NC(=O)[C@H](Cc1cnc[nH]1)NC(=O)[C@H](CCCN=C(N)N)NC(=O)[C@H](CC(C)C)NC(=O)[C@H](CC(C)C)NC(=O)[C@H](Cc1cnc[nH]1)NC(=O)[C@H](CCCN=C(N)N)NC(=O)[C@H](CC(C)C)NC(=O)[C@H](C)NC(=O)[C@H](CC(=O)O)NC(=O)[C@@H](N)CC(=O)O)C(=O)O [DDALRHLLRHLLRHL]

MIC [43]: ≥ 32 µM
MIC [40]: 5.41 µM (≈ 7.49 µg/mL)
MIC [44]: 8 µM (≈ 11.1 µg/mL)
MIC [45]: ≥ 32 µM
MIC [25]: 3.6 µM (≈ 5 µg/mL)
MIC [46]: 8 µM (≈ 11.1 µg/mL)
MIC [11]: 1.8 µM (≈ 2.5 µg/mL)
MIC [47]: 5.66 µM (≈ 7.84 µg/mL)
SMILES: NC(=O)[C@H](CCCN=C(N)N)NC(=O)[C@H](Cc1c[nH]c2ccccc12)NC(=O)[C@H](Cc1c[nH]c2ccccc12)NC(=O)[C@H](CCCN=C(N)N)NC(=O)[C@H](Cc1c[nH]c2ccccc12)NC(=O)[C@H](Cc1c[nH]c2ccccc12)NC(=O)[C@H](CCCN=C(N)N)NC(=O)[C@@H](N)CCCN=C(N)N [RRWWRWWR]

MIC [48]: 10 µM (≈ 13.9 µg/mL)
MIC [49]: 10 µM (≈ 13.9 µg/mL)
MIC [50]: 20 µM (≈ 27.7 µg/mL)
MIC [51]: 20 µM (≈ 27.7 µg/mL)
MIC [52]: 10 µM (≈ 13.9 µg/mL)
SMILES: CC[C@H](C)[C@H](NC(=O)CN)C(=O)N[C@@H](Cc1cnc[nH]1)C(=O)N[C@@H](CC(=O)O)C(=O)N[C@H](C(=O)N[C@@H](CC(C)C)C(=O)N[C@@H](CCCCN)C(=O)N[C@@H](Cc1ccc(O)cc1)C(=O)NCC(=O)N[C@@H](CCCCN)C(=O)N[C@@H](CCCN=C(N)N)C(=O)N[C@@H](CO)C(N)=O)[C@@H](C)CC [GIHDILKYGKRS]
